Source: US20250339409A1, “USES OF PAN BET INHIBITORS” (VYNE THERAPEUTICS INC., priority 2021, published 2025)
Several values for one entry are separate records, joined by “and”; a condition that tells them apart may be missing. Equal values may be shown once.

Test system: anti collagen antibodies induced arthritis (ACAIA)
Assay: Anti collagen antibodies induced arthritis (ACAIA) in mice, intra-articular treatment: paw thickness, arthritis clinical score, body weight;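 note: mouse arthritis induced by IV anti-collagen mAb on day 0 plus IP LPS on day 4, with body weight, caliper paw thickness and 0-4 paw score tracked against a day 0 baseline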
Conditions: for Average clinical score per day (untreated): untreated leg
[1] = BETi1 0.1 mg/kg IA (Group 4), Av
[2] = BETi1 0.1 mg/kg IA (Group 4), individual animals, 0.1 mg/kg
[3] = BETi1 1 mg/kg IA (Group 3), individual animals, 1 mg/kg
[4] = BETi1 10 mg/kg IA (Group 2), Av
[5] = BETi1 10 mg/kg IA (Group 2), individual animals, 10 mg/kg

Procedure: A homogenous dispersion is accomplished by sonication at 40 kHz for 30 minutes. The homogeneity including absence of aggregates of particles of the dispersion is confirmed by light microscopy. Lower concentrations are obtained by corresponding dilution of dispersion at 4 mg/gram with NaCMC solution. All dispersions are thermally sterilized.
Animals weighing −20 g are administered with 0.2 ml or 50 μl of dosing solution via IA (Groups 1-5).
During the acclimation period (at least 5 days), animals are randomly assigned to experimental groups according to body weight. Each dosing group is kept in separate cages to avoid cross-contamination which can occur through the consumption of fecal matter during the study. To generate the morphological and functional aspects of Rheumatoid Arthritis, all mice (7 mice in each of Groups 1-7) are subjected to a tail intravenous (IV) injection of 0.4 ml of anti-collagen mAb (4 mg in 400 μl) on study day 0. LPS is injected intraperitoneally on study day 4 (50 μg LPS in 200 μl of PBS). Anti-collagen mAb is supplied by MD Biosciences, Division of Morwell Diagnostics GmbH and is used as provided.
50 μl of the positive control is administered via intra-articular (IA) on study days 0, 3, 6 and 9 (Group 7).
Animals are examined for signs of arthritis on study day 0 for all paws and again on study days 3-8, 10 and 12 (front left and right paws, hind left and right paws). The signs of arthritis on study day 0 serve as a baseline for the arthritis clinical score parameter. Arthritis reactions are reported for each paw according to a 0-4 scale in ascending order of severity as shown below.
Paw thickness for both hind paws is measured on study day 0 and again on study days 3-8, 10 and 12. The measurements of paw thickness on study day 0 serve as the baseline for the paw volume parameter. The measurements are carried out using a digital caliper.
Throughout the 13-day study general clinical signs and observation are performed and recorded if any unexpected abnormalities are observed. These clinical signs are observed in addition to the ACAIA clinical scoring and assessment.
Individual body weights are determined on study day 0 and shortly before arthritis induction on study day 0. The weights measured on study day 0 are used as baseline measurements. From disease induction the animals are weighed daily on study days 3-8, 10 and 12 (study termination).
Statistics and data evaluation are primarily based on the mean values for body weight, arthritis clinical scoring and paw thickness measurements. Where appropriate, analysis of the data by one-way ANOVA followed by Dunnett's post-test is applied to determine the significance of treatment effects. All data for the histopathological analysis is presented as Mean±SEM. The treatment groups are compared to the Vehicle group (Group 1) or the contralateral hind paw using the Student's T-test. A p-value <0.05 is considered to represent a significant difference.
Inflammatory arthritis was induced in BALB/C mice using a mixture of four arthritogenic MAbs by iv at Day 0 and was further challenged with an LPS iv injection at Day 4 (N=7/treatment group).
In this validated preclinical model for rheumatoid arthritis, inflammatory arthritis was induced in BALB/c mice by systemically injecting a mixture of four arthritogenic monoclonal antibodies against collagen II at day 1. In addition, the mice received a lipopolysaccharide injection systemically at day 4 to stimulate an acute systemic inflammatory response. […] Each animal treated with the intra-articular injections received the injection in the ankle of one rear paw. The untreated rear paw was assessed to evaluate any potential anti-inflammatory systemic effect. Treatment response was evaluated based on an assessment of paw thickening or swelling (in millimeters) and arthritis scoring based on a five-point composite severity scale of redness, swelling of the ankles and wrists, and paw thickness.

For `Cn1cc(-c2cccc(O)c2Oc2ccccc2)c2cc[nH]c2c1=O` [BETi1], the Weight per day, Day 5 [1] was 18.6 g, the Weight per day, Day 6 [1] was 18.1 g and the Weight per day, Day 7 [1] was 18.1 g. The Weight per day, Day 8 [1] was 17.9 g, the Weight per day, Day 10 [1] was 18.1 g and the Weight per day, Day 12 [1] was 19.1 g. For the same compound, the Weight per day, Baseline [2] was 20.2 g and 21 g and 19.7 g and 21.9 g and 20.3 g and 21.5 g and 18.5 g, the Weight per day, Day 3 [2] was 20 g and 21.2 g (2×) and 20.3 g and 22.4 g and 20.6 g and 18.8 g and the Weight per day, Day 4 [2] was 20 g and 21.3 g and 18 g and 21.9 g and 20.4 g and 21.4 g and 19.1 g. For the same compound, the Weight per day, Day 5 [2] was 18.1 g and 19 g and 16.6 g and 20.5 g and 19.4 g (2×) and 17.4 g, the Weight per day, Day 6 [2] was 17.3 g and 18.7 g and 16.5 g and 19.7 g and 18.5 g and 18.9 g and 17.2 g and the Weight per day, Day 7 [2] was 17.8 g and 18.8 g (2×) and 16.8 g and 19.5 g and 18.2 g and 16.7 g. For the same compound, the Weight per day, Day 8 [2] was 17.5 g and 18.4 g (3×) and 16.7 g and 19.5 g and 16.6 g, the Weight per day, Day 10 [2] was 18.2 g and 19 g and 16.8 g (2×) and 19.4 g and 17.7 g and 19.1 g and the Weight per day, Day 12 [2] was 18.8 g and 19.9 g and 17.5 g and 20.7 g and 18.7 g and 20.2 g and 18 g. It also gave a Weight per day, Baseline (BETi1 1 mg/kg IA (Group 3), Av) of 20.7 g, a Weight per day, Day 3 (BETi1 1 mg/kg IA (Group 3), Av) of 20.7 g and a Weight per day, Day 4 (BETi1 1 mg/kg IA (Group 3), Av) of 21 g. For the same compound, the Weight per day, Day 5 (BETi1 1 mg/kg IA (Group 3), Av) was 19 g, the Weight per day, Day 6 (BETi1 1 mg/kg IA (Group 3), Av) was 18.5 g and the Weight per day, Day 7 (BETi1 1 mg/kg IA (Group 3), Av) was 18.6 g. For the same compound, the Weight per day, Day 8 (BETi1 1 mg/kg IA (Group 3), Av) was 18.9 g, the Weight per day, Day 10 (BETi1 1 mg/kg IA (Group 3), Av) was 19.3 g and the Weight per day, Day 12 (BETi1 1 mg/kg IA (Group 3), Av) was 20.1 g. The Weight per day, Baseline [3] was 20.4 g and 22.5 g and 20.3 g and 19.9 g and 21.5 g and 19.7 g and 20.6 g, the Weight per day, Day 3 [3] was 20.6 g and 22.1 g and 20.8 g and 19.6 g and 21 g and 19.8 g and 20.9 g and the Weight per day, Day 4 [3] was 20.8 g and 22.5 g and 21.1 g and 19.9 g (2×) and 21.7 g and 21 g. For the same compound, the Weight per day, Day 5 [3] was 19.1 g and 20.2 g and 19.2 g (2×) and 17.7 g and 17.9 g and 19.5 g, the Weight per day, Day 6 [3] was 18.7 g and 18.6 g and 18.8 g (2×) and 18 g and 19.3 g and 17.2 g and the Weight per day, Day 7 [3] was 18.3 g and 18.9 g (2×) and 17.8 g and 19.4 g and 17.7 g and 19.2 g. For the same compound, the Weight per day, Day 8 [3] was 18.5 g and 19.8 g and 18.8 g and 17.9 g and 19.3 g and 18.2 g and 19.6 g, the Weight per day, Day 10 [3] was 18.8 g and 21.3 g and 19 g and 18.6 g and 19.3 g and 18.7 g and 19.2 g and the Weight per day, Day 12 [3] was 19.4 g (2×) and 22.5 g and 19.9 g and 19.3 g and 20.1 g (2×). The Weight per day, Baseline [4] was 21.3 g, the Weight per day, Day 3 [4] was 21.4 g and the Weight per day, Day 4 [4] was 21.5 g. It also gave a Weight per day, Day 5 [4] of 19.6 g, a Weight per day, Day 6 [4] of 19.6 g and a Weight per day, Day 7 [4] of 19.5 g. For the same compound, the Weight per day, Day 8 [4] was 19.2 g, the Weight per day, Day 10 [4] was 19.4 g and the Weight per day, Day 12 [4] was 20.2 g. The Weight per day, Baseline [5] was 20.2 g and 21.6 g and 20.8 g and 21.7 g and 21.4 g and 22.2 g and 21.3 g, the Weight per day, Day 3 [5] was 20.1 g and 21.5 g (2×) and 21.3 g (2×) and 22 g and 21.8 g and the Weight per day, Day 4 [5] was 20.2 g and 21.4 g (2×) and 22.4 g and 21.6 g and 21.9 g and 21.7 g. The Weight per day, Day 5 [5] was 18.5 g and 20.1 g and 19.3 g and 20.3 g and 19.9 g and 19.4 g, the Weight per day, Day 6 [5] was 18.9 g and 19.8 g and 19.2 g and 19.5 g (2×) and 20.4 g and the Weight per day, Day 7 [5] was 18.7 g and 19.4 g and 19.5 g and 19.6 g (2×) and 20.3 g. The Weight per day, Day 8 [5] was 18.6 g and 19.2 g and 19.6 g and 18.8 g and 20.2 g and 19.1 g, the Weight per day, Day 10 [5] was 18.3 g and 19.2 g and 19.8 g and 19.6 g and 20.5 g and 19.3 g and the Weight per day, Day 12 [5] was 19.3 g and 20.3 g and 20.4 g and 19.9 g and 21.1 g and 20 g. For the same compound, the “Average clinical score per day (untreated)” value (0.01 mg/kg IA (Group 5), Baseline) was 0.00 points, the “Average clinical score per day (untreated)” value (0.01 mg/kg IA (Group 5), Day 3) was 0.00 points and the “Average clinical score per day (untreated)” value (0.01 mg/kg IA (Group 5), Day 4) was 0.00 points. For the same compound, the “Average clinical score per day (untreated)” value (0.01 mg/kg IA (Group 5), Day 5) was 0.00 points, the “Average clinical score per day (untreated)” value (0.01 mg/kg IA (Group 5), Day 6) was 0.86 points and the “Average clinical score per day (untreated)” value (0.01 mg/kg IA (Group 5), Day 7) was 1.57 points. For the same compound, the “Average clinical score per day (untreated)” value (0.01 mg/kg IA (Group 5), Day 8) was 1.71 points, the “Average clinical score per day (untreated)” value (0.01 mg/kg IA (Group 5), Day 10) was 2.14 points and the “Average clinical score per day (untreated)” value (0.01 mg/kg IA (Group 5), Day 12) was 1.43 points. For the same compound, the “Average clinical score per day (untreated)” value (0.1 mg/kg IA (Group 4), Baseline) was 0.00 points, the “Average clinical score per day (untreated)” value (0.1 mg/kg IA (Group 4), Day 3) was 0.00 points and the “Average clinical score per day (untreated)” value (0.1 mg/kg IA (Group 4), Day 4) was 0.00 points. The “Average clinical score per day (untreated)” value (0.1 mg/kg IA (Group 4), Day 5) was 0.00 points, the “Average clinical score per day (untreated)” value (0.1 mg/kg IA (Group 4), Day 6) was 1.14 points and the “Average clinical score per day (untreated)” value (0.1 mg/kg IA (Group 4), Day 7) was 2.00 points. The “Average clinical score per day (untreated)” value (0.1 mg/kg IA (Group 4), Day 8) was 2.29 points, the “Average clinical score per day (untreated)” value (0.1 mg/kg IA (Group 4), Day 10) was 2.57 points and the “Average clinical score per day (untreated)” value (0.1 mg/kg IA (Group 4), Day 12) was 3.00 points. For the same compound, the “Average clinical score per day (untreated)” value (1 mg/kg IA (Group 3), Baseline) was 0.00 points, the “Average clinical score per day (untreated)” value (1 mg/kg IA (Group 3), Day 3) was 0.00 points and the “Average clinical score per day (untreated)” value (1 mg/kg IA (Group 3), Day 4) was 0.00 points. For the same compound, the “Average clinical score per day (untreated)” value (1 mg/kg IA (Group 3), Day 5) was 0.00 points, the “Average clinical score per day (untreated)” value (1 mg/kg IA (Group 3), Day 6) was 0.71 points and the “Average clinical score per day (untreated)” value (1 mg/kg IA (Group 3), Day 7) was 1.43 points. For the same compound, the “Average clinical score per day (untreated)” value (1 mg/kg IA (Group 3), Day 8) was 2.43 points, the “Average clinical score per day (untreated)” value (1 mg/kg IA (Group 3), Day 10) was 2.00 points and the “Average clinical score per day (untreated)” value (1 mg/kg IA (Group 3), Day 12) was 2.43 points. For the same compound, the “Average clinical score per day (untreated)” value (10 mg/kg IA (Group 2), Baseline) was 0.00 points, the “Average clinical score per day (untreated)” value (10 mg/kg IA (Group 2), Day 3) was 0.00 points and the “Average clinical score per day (untreated)” value (10 mg/kg IA (Group 2), Day 4) was 0.00 points. For the same compound, the “Average clinical score per day (untreated)” value (10 mg/kg IA (Group 2), Day 5) was 0.00 points, the “Average clinical score per day (untreated)” value (10 mg/kg IA (Group 2), Day 6) was 0.83 points and the “Average clinical score per day (untreated)” value (10 mg/kg IA (Group 2), Day 7) was 1.83 points. For the same compound, the “Average clinical score per day (untreated)” value (10 mg/kg IA (Group 2), Day 8) was 3.00 points, the “Average clinical score per day (untreated)” value (10 mg/kg IA (Group 2), Day 10) was 3.00 points and the “Average clinical score per day (untreated)” value (10 mg/kg IA (Group 2), Day 12) was 3.33 points.
